# Experimental data published in PubChem BioAssay (NCI).
#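 48-hour exposure; five concentrations; linearly interpolated endpoints. TGI is the concentration that stops growth completely.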
# Columns and labels:
# Experiment in all cases: growth of human tumour cells (NCI), 48 h
# 786-0 renal = system: 786-0 renal
# A549 NSCLC = system: A549 NSCLC
# ACHN renal = system: ACHN renal
# BT-549 breast = system: BT-549 breast
# CAKI-1 renal = system: CAKI-1 renal
# COLO 205 colon = system: COLO 205 colon
# DU-145 prostate = system: DU-145 prostate
# EKVX NSCLC = system: EKVX NSCLC
# HCC-2998 colon = system: HCC-2998 colon
# HCT-116 colon = system: HCT-116 colon
# HCT-15 colon = system: HCT-15 colon
# HOP-62 NSCLC = system: HOP-62 NSCLC
# HOP-92 NSCLC = system: HOP-92 NSCLC
# HS 578T breast = system: HS 578T breast
# HT29 colon = system: HT29 colon
# IGROV1 ovarian = system: IGROV1 ovarian
# KM12 colon = system: KM12 colon
# LOX IMVI melanoma = system: LOX IMVI melanoma
# M14 melanoma = system: M14 melanoma
# MALME-3M melanoma = system: MALME-3M melanoma
# MCF7 breast = system: MCF7 breast
# MDA-MB-435 = system: MDA-MB-435
# MDA-N = system: MDA-N
# MOLT-4 leukemia = system: MOLT-4 leukemia
# NCI-H226 lung = system: NCI-H226 lung
# NCI-H23 lung = system: NCI-H23 lung
# NCI-H460 lung = system: NCI-H460 lung
# NCI-H522 lung = system: NCI-H522 lung
# NCI/ADR-RES ovarian = system: NCI/ADR-RES ovarian
# OVCAR-3 ovarian = system: OVCAR-3 ovarian
# OVCAR-4 ovarian = system: OVCAR-4 ovarian
# OVCAR-8 ovarian = system: OVCAR-8 ovarian
# PC-3 prostate = system: PC-3 prostate
# RPMI-8226 leukemia = system: RPMI-8226 leukemia
# RXF 393 renal = system: RXF 393 renal
# SF-268 CNS = system: SF-268 CNS
# SF-295 CNS = system: SF-295 CNS
# SF-539 CNS = system: SF-539 CNS
# SK-MEL-2 melanoma = system: SK-MEL-2 melanoma
# SK-MEL-28 melanoma = system: SK-MEL-28 melanoma
# SK-MEL-5 melanoma = system: SK-MEL-5 melanoma
# SK-OV-3 ovarian = system: SK-OV-3 ovarian
# SN12C renal = system: SN12C renal
# SNB-19 CNS = system: SNB-19 CNS
# SNB-75 CNS = system: SNB-75 CNS
# SR leukemia = system: SR leukemia
# SW-620 colon = system: SW-620 colon
# T-47D breast = system: T-47D breast
# TK-10 renal = system: TK-10 renal
# U251 CNS = system: U251 CNS
# UACC-257 melanoma = system: UACC-257 melanoma
# UACC-62 melanoma = system: UACC-62 melanoma
# UO-31 renal = system: UO-31 renal
# A498 renal = system: A498 renal
# CCRF-CEM leukemia = system: CCRF-CEM leukemia
# HL-60(TB) leukemia = system: HL-60(TB) leukemia
# K-562 leukemia = system: K-562 leukemia
# MDA-MB-231 breast = system: MDA-MB-231 breast
# OVCAR-5 ovarian = system: OVCAR-5 ovarian
smiles,measurement,setting,value
O=[N+]([O-])c1ccc(-c2nc3ccc([N+](=O)[O-])cc3[nH]2)cc1,TGI,786-0 renal,> 100 µM
same,TGI,A549 NSCLC,62.7 µM
same,TGI,ACHN renal,> 100 µM
same,TGI,BT-549 breast,85.7 µM
same,TGI,CAKI-1 renal,> 100 µM
same,TGI,COLO 205 colon,28.2 µM
same,TGI,DU-145 prostate,> 100 µM
same,TGI,EKVX NSCLC,> 100 µM
same,TGI,HCC-2998 colon,> 100 µM
same,TGI,HCT-116 colon,38.3 µM
same,TGI,HCT-15 colon,> 100 µM
same,TGI,HOP-62 NSCLC,97 µM
same,TGI,HOP-92 NSCLC,59.4 µM
same,TGI,HS 578T breast,> 100 µM
same,TGI,HT29 colon,> 100 µM
same,TGI,IGROV1 ovarian,> 100 µM
same,TGI,KM12 colon,> 100 µM
same,TGI,LOX IMVI melanoma,67.8 µM
same,TGI,M14 melanoma,> 100 µM
same,TGI,MALME-3M melanoma,84.2 µM
same,TGI,MCF7 breast,> 100 µM
same,TGI,MDA-MB-435,89.5 µM
same,TGI,MDA-N,> 100 µM
same,TGI,MOLT-4 leukemia,> 100 µM
same,TGI,NCI-H226 lung,> 100 µM
same,TGI,NCI-H23 lung,65.3 µM
same,TGI,NCI-H460 lung,65.1 µM
same,TGI,NCI-H522 lung,88.4 µM
same,TGI,NCI/ADR-RES ovarian,57.6 µM
same,TGI,OVCAR-3 ovarian,> 100 µM
same,TGI,OVCAR-4 ovarian,> 100 µM
same,TGI,OVCAR-8 ovarian,> 100 µM
same,TGI,PC-3 prostate,70.7 µM
same,TGI,RPMI-8226 leukemia,> 100 µM
same,TGI,RXF 393 renal,> 100 µM
same,TGI,SF-268 CNS,> 100 µM
same,TGI,SF-295 CNS,66.1 µM
same,TGI,SF-539 CNS,> 100 µM
same,TGI,SK-MEL-2 melanoma,59.6 µM
same,TGI,SK-MEL-28 melanoma,> 100 µM
same,TGI,SK-MEL-5 melanoma,44.9 µM
same,TGI,SK-OV-3 ovarian,> 100 µM
same,TGI,SN12C renal,> 100 µM
same,TGI,SNB-19 CNS,> 100 µM
same,TGI,SNB-75 CNS,> 100 µM
same,TGI,SR leukemia,> 100 µM
same,TGI,SW-620 colon,> 100 µM
same,TGI,T-47D breast,61.7 µM
same,TGI,TK-10 renal,> 100 µM
same,TGI,U251 CNS,70.1 µM
same,TGI,UACC-257 melanoma,> 100 µM
same,TGI,UACC-62 melanoma,> 100 µM
same,TGI,UO-31 renal,61.4 µM
COc1cc(/C=C2/SC(c3ccccc3)N(c3cccc(Cl)c3)C2=O)cc(OC)c1OC (centres undefined),TGI,786-0 renal,36.4 µM
same,TGI,A498 renal,> 100 µM
same,TGI,A549 NSCLC,> 100 µM
same,TGI,ACHN renal,> 100 µM
same,TGI,BT-549 breast,72 µM
same,TGI,CAKI-1 renal,> 100 µM
same,TGI,CCRF-CEM leukemia,39.9 µM
same,TGI,COLO 205 colon,> 100 µM
same,TGI,DU-145 prostate,> 100 µM
same,TGI,EKVX NSCLC,> 100 µM
same,TGI,HCC-2998 colon,> 100 µM
same,TGI,HCT-116 colon,34.8 µM
same,TGI,HCT-15 colon,> 100 µM
same,TGI,HL-60(TB) leukemia,> 100 µM
same,TGI,HOP-62 NSCLC,> 100 µM
same,TGI,HOP-92 NSCLC,77.4 µM
same,TGI,HS 578T breast,> 100 µM
same,TGI,HT29 colon,72.6 µM
same,TGI,K-562 leukemia,> 100 µM
same,TGI,KM12 colon,> 100 µM
same,TGI,LOX IMVI melanoma,35.1 µM
same,TGI,M14 melanoma,> 100 µM
same,TGI,MALME-3M melanoma,96.5 µM
same,TGI,MCF7 breast,> 100 µM
same,TGI,MDA-MB-231 breast,> 100 µM
same,TGI,MDA-MB-435,93.4 µM
same,TGI,MDA-N,43.2 µM
same,TGI,MOLT-4 leukemia,> 100 µM
same,TGI,NCI-H226 lung,> 100 µM
same,TGI,NCI-H23 lung,> 100 µM
same,TGI,NCI-H460 lung,> 100 µM
same,TGI,NCI-H522 lung,26.2 µM
same,TGI,NCI/ADR-RES ovarian,73.9 µM
same,TGI,OVCAR-3 ovarian,> 100 µM
same,TGI,OVCAR-4 ovarian,> 100 µM
same,TGI,OVCAR-5 ovarian,> 100 µM
same,TGI,OVCAR-8 ovarian,59.6 µM
same,TGI,RPMI-8226 leukemia,58.3 µM
same,TGI,RXF 393 renal,53.1 µM
same,TGI,SF-268 CNS,> 100 µM
same,TGI,SF-295 CNS,> 100 µM
same,TGI,SF-539 CNS,43 µM
same,TGI,SK-MEL-2 melanoma,> 100 µM
same,TGI,SK-MEL-28 melanoma,90.1 µM
same,TGI,SK-MEL-5 melanoma,> 100 µM
same,TGI,SK-OV-3 ovarian,> 100 µM
same,TGI,SN12C renal,37.2 µM
same,TGI,SNB-19 CNS,> 100 µM
same,TGI,SR leukemia,81.8 µM
same,TGI,SW-620 colon,> 100 µM
same,TGI,T-47D breast,> 100 µM
same,TGI,TK-10 renal,> 100 µM
same,TGI,U251 CNS,86.8 µM
same,TGI,UACC-257 melanoma,> 100 µM
same,TGI,UACC-62 melanoma,> 100 µM
same,TGI,UO-31 renal,> 100 µM
